Experimental data from patent EP4603105A1, “PHARMACEUTICAL COMPOSITION CONTAINING CYCLIC COMPOUND HAVING SELECTIVE KRAS INHIBITORY EFFECT AGAINST HRAS AND NRAS” (CHUGAI SEIYAKU KABUSHIKI KAISHA, priority 2022, dated 2024).
pIC50, pKd: −log10 of the molar value.

Legend:
[1] = test system: human lung cancer strain NCI-H441; type: cell-based
Method in brief: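 Readout: […] after the ATP-based reagent. Compound: serial dilutions in dimethyl sulfoxide.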

[2] = biological target: GDP-bound KRAS wild-type protein (Homo sapiens, UniProt P01116); test: Binding to KRAS by surface plasmon resonance (SPR), dissociation constant KD; settings: 1:1 binding model
Chain of GDP-bound KRAS wild-type protein (P01116 1-188 isoform P01116-2): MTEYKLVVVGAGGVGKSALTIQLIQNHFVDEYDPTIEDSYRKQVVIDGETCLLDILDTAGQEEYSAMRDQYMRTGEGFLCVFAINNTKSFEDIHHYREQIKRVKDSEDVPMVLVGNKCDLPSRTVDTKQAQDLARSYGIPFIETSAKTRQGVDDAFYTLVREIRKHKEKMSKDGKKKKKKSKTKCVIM
Method in brief: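 Running buffer contained 10 µM GDP and 10 mM MgCl2 to keep RAS in the GDP state, with 4% DMSO at pH 7.4. Compounds were flowed at 100 µL/min in 75 s steps of rising concentration over captured biotin-Avi RAS at 30°C. Sensorgrams were fitted 1:1 for KD.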

[3] = biological target: HRAS wild-type protein (Homo sapiens, UniProt P01112); test: Binding to HRAS by surface plasmon resonance (SPR), KD and KD ratio to KRAS; settings: ratio of KD for HRAS wild-type protein to KD for KRAS
Chain of HRAS wild-type protein (P01112 whole entry): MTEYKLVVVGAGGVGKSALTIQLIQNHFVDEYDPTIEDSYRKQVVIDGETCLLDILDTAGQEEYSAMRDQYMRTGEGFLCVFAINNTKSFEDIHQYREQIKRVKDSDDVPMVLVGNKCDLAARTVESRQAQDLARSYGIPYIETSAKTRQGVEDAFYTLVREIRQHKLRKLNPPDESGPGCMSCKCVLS
Method in brief: (§1)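 GDP-bound biotin-Avi RAS captured at ~100–300 RU, 30°C, pH 7.4 HBS containing 10 µM GDP, 10 mM MgCl2, 1 mM DTT, 0.01% Tween 20 and 4% DMSO. KD by 1:1 fitting.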

[4] = biological target: GDP-bound NRAS wild-type protein (Homo sapiens, UniProt P01111); test: Binding to NRAS by surface plasmon resonance (SPR), KD and KD ratio to KRAS; settings: ratio of KD for GDP-bound NRAS wild-type protein to KD for KRAS
Chain of GDP-bound NRAS wild-type protein (P01111 whole entry): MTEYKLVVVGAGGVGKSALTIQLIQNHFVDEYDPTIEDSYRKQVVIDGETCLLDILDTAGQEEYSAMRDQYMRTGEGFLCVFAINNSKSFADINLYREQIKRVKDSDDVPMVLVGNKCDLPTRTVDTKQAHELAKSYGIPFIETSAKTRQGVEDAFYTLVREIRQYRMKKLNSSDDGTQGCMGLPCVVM
Method in brief: as §1

Row | SMILES | pIC50 [1] | pKd [2] | HRAS /KRAS [3] | NRAS /KRAS [4]
1 | CCC(CC)[C@H]1C(=O)N(C)[C@H](C(=O)N(C)C)CC(=O)N(C)[C@@H](COC)C(=O)N[C@@H]([C@@H](C)CC)C(=O)N(C)CC(=O)N(C)[C@H]2C/C=C\CCN(C2=O)[C@@H](Cc2ccc(C)cc2)C(=O)N(C)CC(=O)N[C@@H](CCc2cc(F)c(C(F)(F)F)c(F)c2)C(=O)N2CCCCC[C@H]2C(=O)NC2(CC(C)(C)C2)C(=O)N1C [PP2960] | 8.05 | 9.49 | A (a compound having 10 or more and less than 20 is denoted as A) | A (a compound having 10 or more and less than 20 is denoted as A)
2 | CCC(CC)[C@H]1C(=O)N(C)[C@H](C(=O)N(C)C)CC(=O)N(C)[C@@H](COC)C(=O)N[C@@H]([C@@H](C)CC)C(=O)N(C)CC(=O)N(C)[C@H]2C/C=C\CCN(C2=O)[C@@H](Cc2ccc(C)cc2)C(=O)N(C)CC(=O)N[C@@H](CCc2ccc(C(F)(F)F)c(OC)c2)C(=O)N2CCCCC[C@H]2C(=O)NC2(CC(C)(C)C2)C(=O)N1C [PP2970] | 7.64 | 9.34 | A (a compound having 10 or more and less than 20 is denoted as A) | A (a compound having 10 or more and less than 20 is denoted as A)
3 | CCC(CC)[C@H]1C(=O)N(C)[C@H](C(=O)N(C)C)CC(=O)N(C)[C@@H](COC)C(=O)N[C@@H]([C@@H](C)CC)C(=O)N(C)CC(=O)N(C)[C@H]2C/C=C\CCN(C2=O)[C@@H](Cc2ccc(C)cc2)C(=O)N(C)CC(=O)N[C@@H](CCc2ccc(Cl)c(Cl)c2)C(=O)N2CCCCC[C@H]2C(=O)NC2(CC(C)(C)C2)C(=O)N1C [PP2974] | 7.41 | 8.89 | A (a compound having 10 or more and less than 20 is denoted as A) | A (a compound having 10 or more and less than 20 is denoted as A)
4 | C#CC[C@H]1C(=O)N[C@@H]([C@@H](C)CC)C(=O)N(C)CC(=O)N(C)[C@H]2C/C=C\CCN(C2=O)[C@@H](Cc2ccc(C)cc2)C(=O)N(C)CC(=O)N[C@@H](CCc2cc(F)c(C(F)(F)F)c(F)c2)C(=O)N2CC3(CC3)C[C@H]2C(=O)NC2(CC(C)(C)C2)C(=O)N(C)[C@@H](C2CCCC2)C(=O)N(C)[C@H](C(=O)N(C)C)CC(=O)N1C [PP2978] | 8.23 | 9.96 | A (a compound having 10 or more and less than 20 is denoted as A) | A (a compound having 10 or more and less than 20 is denoted as A)
5 | CCC[C@H]1C(=O)N[C@@H]([C@@H](C)CC)C(=O)N(C)CC(=O)N(C)[C@H]2C/C=C\CCN(C2=O)[C@@H](Cc2ccc(C(F)(F)F)cc2)C(=O)N(C)CC(=O)N[C@@H](CCc2ccc(C(F)(F)F)c(Cl)c2)C(=O)N2CC3(CC3)C[C@H]2C(=O)NC2(CC(C)(C)C2)C(=O)N(C)[C@@H](CC(F)(F)F)C(=O)N(C)[C@H](C(=O)N(C)C)CC(=O)N1C [PP2985] | 7.33 | 8.85 | A (a compound having 10 or more and less than 20 is denoted as A) | AA (a compound having 20 or more is denoted as AA)
6 | CCC[C@H]1C(=O)N[C@@H]([C@@H](C)CC)C(=O)N(C)CC(=O)N(C)[C@H]2C/C=C\CCN(C2=O)[C@@H](Cc2ccc(C)cc2)C(=O)N(C)CC(=O)N[C@@H](CCc2cc(F)c(C(F)(F)F)c(F)c2)C(=O)N2C[C@H](OCC)C[C@H]2C(=O)NC2(CC(C)(C)C2)C(=O)N(C)[C@@H](CC(C)C)C(=O)N(C)[C@H](C(=O)N(C)C)CC(=O)N1C [PP2995] | 7.89 | 9.49 | A (a compound having 10 or more and less than 20 is denoted as A) | A (a compound having 10 or more and less than 20 is denoted as A)

Continued, in another order:

Row | pIC50 [1] | pKd [2] | SMILES | HRAS /KRAS [3] | NRAS /KRAS [4]
7 | 8.46 | 9.92 | CCC[C@H]1C(=O)N[C@@H]([C@@H](C)CC)C(=O)N(C)CC(=O)N(C)[C@H]2C/C=C\CCN(C2=O)[C@@H](Cc2ccc(C)cc2)C(=O)N(C)CC(=O)N[C@@H](CCc2cc(Cl)c3sccc3c2)C(=O)N2C[C@H](OCC)C[C@H]2C(=O)NC2(CC(C)(C)C2)C(=O)N(C)[C@@H](C2CCCC2)C(=O)N(C)[C@H](C(=O)N(C)C)CC(=O)N1C [PP2947] | B (a compound having 3 or more and less than 10 is denoted as B) | B (a compound having 3 or more and less than 10 is denoted as B)
8 | 8.48 | 9.26 | CCC[C@H]1C(=O)N[C@@H]([C@@H](C)CC)C(=O)N(C)CC(=O)N(C)[C@H]2C/C=C\CCN(C2=O)[C@@H](Cc2ccc(C(F)(F)F)cc2)C(=O)N(C)CC(=O)N[C@@H](CCc2ccc3sc(F)c(C)c3c2)C(=O)N2C[C@H](OCC)C[C@H]2C(=O)NC2(CC(C)(C)C2)C(=O)N(C)[C@@H](C2CCCC2)C(=O)N(C)[C@H](C(=O)N(C)C)CC(=O)N1C [PP2948] | A (a compound having 10 or more and less than 20 is denoted as A) | A (a compound having 10 or more and less than 20 is denoted as A)
9 | 7.43 | 9.00 | CCC[C@H]1C(=O)N[C@@H]([C@@H](C)CC)C(=O)N(C)CC(=O)N(C)[C@H]2C/C=C\CCN(C2=O)[C@@H](Cc2ccc(C)cc2)C(=O)N(C)CC(=O)N[C@@H](CCc2cc(Cl)c3c(ccn3C)c2)C(=O)N2C[C@H](OCC)C[C@H]2C(=O)NC2(CC(C)(C)C2)C(=O)N(C)[C@@H](C2CCCC2)C(=O)N(C)[C@H](C(=O)N(C)C)CC(=O)N1C [PP2951] | A (a compound having 10 or more and less than 20 is denoted as A) | A (a compound having 10 or more and less than 20 is denoted as A)
10 | 7.53 | 9.24 | CCC(CC)[C@H]1C(=O)N(C)[C@H](C(=O)N(C)C)CC(=O)N(C)[C@@H](COC)C(=O)N[C@@H]([C@@H](C)CC)C(=O)N(C)CC(=O)N(C)[C@H]2C/C=C\CCN(C2=O)[C@@H](Cc2ccc(C)cc2)C(=O)N(C)CC(=O)N[C@@H](CCc2ccc(C(F)(F)F)c(Cl)c2)C(=O)N2CCCCC[C@H]2C(=O)NC2(CC(C)(C)C2)C(=O)N1C [PP2966] | A (a compound having 10 or more and less than 20 is denoted as A) | A (a compound having 10 or more and less than 20 is denoted as A)
11 | 8.09 | 9.54 | CCC[C@H]1C(=O)N[C@@H](C2CCCC2)C(=O)N(C)CC(=O)N(C)[C@H]2C/C=C\CCN(C2=O)[C@@H](Cc2ccc(C)cc2)C(=O)N(C)CC(=O)N[C@@H](CCc2cc(F)c(C(F)(F)F)c(F)c2)C(=O)N2C[C@H](OCC)C[C@H]2C(=O)NC2(CC(C)(C)C2)C(=O)N(C)[C@@H](C2CCCC2)C(=O)N(C)[C@H](C(=O)N(C)C)CC(=O)N1C [PP2988] | B (a compound having 3 or more and less than 10 is denoted as B) | B (a compound having 3 or more and less than 10 is denoted as B)
12 | 7.80 | 9.68 | CCC[C@H]1C(=O)N[C@@H](C2CCCC2)C(=O)N(C)CC(=O)N(C)[C@H]2C/C=C\CCN(C2=O)[C@@H](Cc2ccc(C)cc2)C(=O)N(C)CC(=O)N[C@@H](CCc2ccc(C(F)(F)F)c(OC)c2)C(=O)N2CC3(CC3)C[C@H]2C(=O)NC2(CC(C)(C)C2)C(=O)N(C)[C@@H](C2CCCC2)C(=O)N(C)[C@H](C(=O)N(C)C)CC(=O)N1C [PP2994] | A (a compound having 10 or more and less than 20 is denoted as A) | AA (a compound having 20 or more is denoted as AA)
13 | 8.08 | 9.37 | CCC[C@H]1C(=O)N[C@@H](C2CCCCC2)C(=O)N(C)CC(=O)N(C)[C@H]2C/C=C\CCN(C2=O)[C@@H](Cc2ccc(C)cc2)C(=O)N(C)CC(=O)N[C@@H](CCc2ccc(C(F)(F)F)c(Cl)c2)C(=O)N2C[C@H](OCC)C[C@H]2C(=O)NC2(CC(C)(C)C2)C(=O)N(C)[C@@H](C2CCCC2)C(=O)N(C)[C@H](C(=O)N(C)C)CC(=O)N1C [PP2998] | AA (a compound having 20 or more is denoted as AA) | A (a compound having 10 or more and less than 20 is denoted as A)
14 | 6.89 | 8.68 | CCC[C@H]1C(=O)N[C@@H](C2CCOCC2)C(=O)N(C)CC(=O)N(C)[C@H]2C/C=C\CCN(C2=O)[C@@H](Cc2ccc(C)cc2)C(=O)N(C)CC(=O)N[C@@H](CCc2ccc(C(F)(F)F)c(Cl)c2)C(=O)N2C[C@H](OCC)C[C@H]2C(=O)NC2(CC(C)(C)C2)C(=O)N(C)[C@@H](C2CCCC2)C(=O)N(C)[C@H](C(=O)N(C)C)CC(=O)N1C [PP3002] | A (a compound having 10 or more and less than 20 is denoted as A) | A (a compound having 10 or more and less than 20 is denoted as A)
15 | 8.06 | 9.82 | CCC[C@H]1C(=O)N[C@@H](C2CCCC2)C(=O)N(C)CC(=O)N(C)[C@H]2C/C=C\CCN(C2=O)[C@@H](Cc2ccc(C)cc2)C(=O)N(C)CC(=O)N[C@@H](CCc2ccc(C(F)(F)F)c(OC)c2)C(=O)N2C[C@H](OCC)C[C@H]2C(=O)NC2(CC(C)(C)C2)C(=O)N(C)[C@@H](CC(C)(C)C)C(=O)N(C)[C@H](C(=O)N(C)C)CC(=O)N1C [PP3005] | B (a compound having 3 or more and less than 10 is denoted as B) | A (a compound having 10 or more and less than 20 is denoted as A)
